Laboratory results from US10131652B2, “Pyrimidinyloxy benzene derivatives as herbicides” (E. I. DU PONT DE NEMOURS AND COMPANY, priority 2014, dated 2018).

How the values were obtained:
Format in all cases: in vivo
[1] = system: Italian ryegrass (Lolium multiflorum); assay: Test B pre-/postemergence plant response
Outline: (§1)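 Ratings reflect visual injury versus untreated controls, from 0 for no effect to 100 for complete control, assessed roughly 10 days after treatment. Formulation: non-phytotoxic solvent mix with surfactant; pre- and postemergence sprays on plants grown in loam soil and sand.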

[2] = system: barnyardgrass (Echinochloa crus-galli); assay: Test B pre-/postemergence plant response
Outline: as §1

corn (Zea mays) = assay: Test B pre-/postemergence plant response
Outline: as §1

[3] = system: giant foxtail (Setaria faberii); assay: Test B pre-/postemergence plant response
Outline: as §1

kochia (Kochia scoparia) = assay: Test B pre-/postemergence plant response
Outline: as §1

[4] = system: pigweed (Amaranthus retroflexus); assay: Test B pre-/postemergence plant response
Outline: as §1

[5] = system: ragweed (common ragweed, Ambrosia elatior); assay: Test B pre-/postemergence plant response
Outline: as §1

[6] = system: wheat (Triticum aestivum); assay: Test B pre-/postemergence plant response
Outline: as §1

[7] = system: blackgrass (Alopecurus myosuroides); assay: Test B postemergence plant response
Outline: (§2)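 Seedlings in a loam soil and sand mix received a postemergence application of the formulated chemicals at the one- to two-leaf stage (2–10 cm tall). They were kept in a greenhouse for roughly 10 days, then scored for injury relative to untreated plants, 0 meaning no effect and 100 complete control.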

[8] = system: galium (catchweed bedstraw, Galium aparine); assay: Test B postemergence plant response
Outline: as §2

[9] = system: barnyardgrass (Echinochloa crus-galli); assay: Test C flooded paddy test plant response; conditions: Flood, 250 g ai/ha; scale of 0 to 100 where 0 is no effect and 100 is complete control; 13 to 15 days
Outline: (§3)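 Water-applied treatment: compounds go directly into floodwater standing 3 cm over the soil of pots holding 2-leaf-stage plants. Depth is kept constant; plants stay in a greenhouse 13 to 15 days before visual comparison with controls on a 0–100 scale.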

[10] = system: ducksalad (Heteranthera limosa); assay: Test C flooded paddy test plant response; conditions: Flood, 250 g ai/ha; scale of 0 to 100 where 0 is no effect and 100 is complete control; 13 to 15 days
Outline: as §3

rice (Oryza sativa) = assay: Test C flooded paddy test plant response; conditions: Flood, 250 g ai/ha; scale of 0 to 100 where 0 is no effect and 100 is complete control; 13 to 15 days
Outline: as §3

[11] = system: small-flower umbrella sedge (Cyperus difformis); assay: Test C flooded paddy test plant response; conditions: Flood, 250 g ai/ha; scale of 0 to 100 where 0 is no effect and 100 is complete control; 13 to 15 days
Outline: as §3

[12] = 31 g ai/ha, Preemergence, 0 to 100 scale where 0 is no effect and 100 is complete control
[13] = 125 g ai/ha, postemergence, 0 to 100 scale, 0 no effect, 100 complete control
[14] = Postemergence, 31 g ai/ha, 0 to 100 scale (0 no effect, 100 complete control)
[15] = Preemergence, 125 g ai/ha, 0 to 100 scale (0 no effect, 100 complete control)
[16] = Postemergence, 500 g ai/ha, 0 to 100 scale (0 no effect, 100 complete control)
[17] = Preemergence, 500 g ai/ha, 0 to 100 scale where 0 is no effect and 100 is complete control
[18] = Postemergence, 1000 g ai/ha, 0 to 100 scale (0 no effect, 100 complete control)
[19] = Preemergence, 1000 g ai/ha, 0 to 100 scale (0 no effect, 100 complete control)

SMILES | Plant response rating, Ryegrass, Italian [1, 13] | Ryegrass, Italian plant response rating [1, 15] | Plant response rating, Barnyardgrass [2, 13] | Barnyardgrass plant response rating [2, 15] | Plant response rating, Corn (corn (Zea mays); [13]) | Plant response rating, Foxtail, Giant [3, 13] | Foxtail, Giant plant response rating [3, 15] | Plant response rating, Kochia (kochia (Kochia scoparia); [13]) | Kochia plant response rating (kochia (Kochia scoparia); [15]) | Plant response rating, Pigweed [4, 13] | Pigweed plant response rating [4, 15] | Plant response rating, Ragweed [5, 13] | Ragweed plant response rating [5, 15] | Plant response rating, Wheat [6, 13] | Plant response rating, Blackgrass [7, 13] | Plant response rating, Galium [8, 13] | Barnyardgrass plant response rating [9] | Ducksalad plant response rating [10] | Rice plant response rating (rice (Oryza sativa)) | Sedge, Umbrella plant response rating [11] | also measured
Fc1ccnc(-c2ccccc2Oc2ncc(Cl)cn2)c1 [Compound 175] | 0 | 0 | 10 | 0 | 0 | 0 | 0 | 30 | 0 | 60 | 70 | 30 | 0 | 0 | 0 | 40 | 0 | 0 | 0 | 0 | Plant response rating, Ryegrass, Italian [1, 12]: 0; Plant response rating, Ryegrass, Italian [1, 14]: 0; Plant response rating, Barnyardgrass [2, 12]: 0; Plant response rating, Barnyardgrass [2, 14]: 0; Plant response rating, Corn (corn (Zea mays); [14]): 0; Plant response rating, Foxtail, Giant [3, 12]: 0; Plant response rating, Foxtail, Giant [3, 14]: 0; Plant response rating, Kochia (kochia (Kochia scoparia); [12]): 0; Plant response rating, Kochia (kochia (Kochia scoparia); [14]): 0; Plant response rating, Pigweed [4, 12]: 0; Plant response rating, Pigweed [4, 14]: 50; Plant response rating, Ragweed [5, 12]: 0; Plant response rating, Ragweed [5, 14]: 20; Plant response rating, Wheat [6, 14]: 0; Plant response rating, Blackgrass [7, 14]: 0; Plant response rating, Galium [8, 14]: 20
FC(F)(F)COc1cc(-c2ccccc2Oc2ncc(Cl)cn2)on1 [Compound 176] | 10 | 10 | 30 | 50 | 30 | 50 | 90 | 100 | 20 | 100 | 90 | 20 | 0 | 0 | 30 | 90 | 0 | 75 | 0 | 30 | Plant response rating, Ryegrass, Italian [1, 12]: 0; Plant response rating, Ryegrass, Italian [1, 14]: 0; Plant response rating, Barnyardgrass [2, 12]: 10; Plant response rating, Barnyardgrass [2, 14]: 10; Plant response rating, Corn (corn (Zea mays); [14]): 10; Plant response rating, Foxtail, Giant [3, 12]: 60; Plant response rating, Foxtail, Giant [3, 14]: 20; Plant response rating, Kochia (kochia (Kochia scoparia); [12]): 0; Plant response rating, Kochia (kochia (Kochia scoparia); [14]): 30; Plant response rating, Pigweed [4, 12]: 30; Plant response rating, Pigweed [4, 14]: 90; Plant response rating, Ragweed [5, 12]: 0; Plant response rating, Ragweed [5, 14]: 10; Plant response rating, Wheat [6, 14]: 0; Plant response rating, Blackgrass [7, 14]: 0; Plant response rating, Galium [8, 14]: 30
Clc1cnc(Oc2ccccc2-c2ccc(Br)s2)nc1 [Compound 181] | 0 | 0 | 10 | 0 | 10 | 0 | 0 | 30 | 0 | 50 | 10 | 10 | 0 | 0 | 0 | 10 | 0 | 0 | 0 | 0 | Plant response rating, Ryegrass, Italian [1, 16]: 0; Plant response rating, Ryegrass, Italian [1, 17]: 0; Plant response rating, Barnyardgrass [2, 16]: 20; Plant response rating, Barnyardgrass [2, 17]: 10; Plant response rating, Corn (corn (Zea mays); [16]): 10; Plant response rating, Foxtail, Giant [3, 16]: 20; Plant response rating, Foxtail, Giant [3, 17]: 40; Plant response rating, Kochia (kochia (Kochia scoparia); [16]): 50; Plant response rating, Kochia (kochia (Kochia scoparia); [17]): 0; Plant response rating, Pigweed [4, 16]: 90; Plant response rating, Pigweed [4, 17]: 80; Plant response rating, Ragweed [5, 16]: 10; Plant response rating, Ragweed [5, 17]: 0; Plant response rating, Wheat [6, 16]: 0; Plant response rating, Blackgrass [7, 16]: 10; Plant response rating, Galium [8, 16]: 50
Clc1cnc(Oc2ccccc2-c2cccs2)nc1 [Compound 182] | 0 | 0 | 0 | 0 | 10 | 0 | 0 | 30 | 0 | 40 | 0 | 0 | 0 | 0 | 0 | 30 | 0 | 0 | 0 | 0 | Plant response rating, Ryegrass, Italian [1, 16]: 0; Plant response rating, Ryegrass, Italian [1, 17]: 10; Plant response rating, Barnyardgrass [2, 16]: 10; Plant response rating, Barnyardgrass [2, 17]: 20; Plant response rating, Corn (corn (Zea mays); [16]): 20; Plant response rating, Foxtail, Giant [3, 16]: 50; Plant response rating, Foxtail, Giant [3, 17]: 40; Plant response rating, Kochia (kochia (Kochia scoparia); [16]): 80; Plant response rating, Kochia (kochia (Kochia scoparia); [17]): 30; Plant response rating, Pigweed [4, 16]: 80; Plant response rating, Pigweed [4, 17]: 40; Plant response rating, Ragweed [5, 16]: 10; Plant response rating, Ragweed [5, 17]: 10; Plant response rating, Wheat [6, 16]: 0; Plant response rating, Blackgrass [7, 16]: 10; Plant response rating, Galium [8, 16]: 50
FC(F)c1cc(-c2ccccc2Oc2ncc(Cl)cn2)ncn1 [Compound 184] | 0 | 0 | 0 | 10 | 10 | 10 | 20 | 70 | 20 | 90 | 80 | 20 | 0 | 0 | 10 | 70 | 0 | 0 | 0 | 0 | Plant response rating, Ryegrass, Italian [1, 16]: 20; Plant response rating, Ryegrass, Italian [1, 17]: 10; Plant response rating, Barnyardgrass [2, 16]: 50; Plant response rating, Barnyardgrass [2, 17]: 90; Plant response rating, Corn (corn (Zea mays); [16]): 20; Plant response rating, Foxtail, Giant [3, 16]: 70; Plant response rating, Foxtail, Giant [3, 17]: 90; Plant response rating, Kochia (kochia (Kochia scoparia); [16]): 100; Plant response rating, Kochia (kochia (Kochia scoparia); [17]): 100; Plant response rating, Pigweed [4, 16]: 100; Plant response rating, Pigweed [4, 17]: 100; Plant response rating, Ragweed [5, 16]: 40; Plant response rating, Ragweed [5, 17]: 50; Plant response rating, Wheat [6, 16]: 10; Plant response rating, Blackgrass [7, 16]: 60; Plant response rating, Galium [8, 16]: 100
Clc1cnc(Oc2ccccc2-c2ccc(Cl)nn2)nc1 [Compound 186] |  |  |  |  |  |  |  |  |  |  |  |  |  |  |  |  | 0 | 0 | 0 | 0 | Plant response rating, Ryegrass, Italian [1, 18]: 0; Plant response rating, Ryegrass, Italian [1, 19]: 0; Plant response rating, Barnyardgrass [2, 18]: 0; Plant response rating, Barnyardgrass [2, 19]: 20; Plant response rating, Corn (corn (Zea mays); [18]): 0; Plant response rating, Foxtail, Giant [3, 18]: 30; Plant response rating, Foxtail, Giant [3, 19]: 100; Plant response rating, Kochia (kochia (Kochia scoparia); [18]): 30; Plant response rating, Kochia (kochia (Kochia scoparia); [19]): 100; Plant response rating, Pigweed [4, 18]: 20; Plant response rating, Pigweed [4, 19]: 100; Plant response rating, Ragweed [5, 18]: 50; Plant response rating, Ragweed [5, 19]: 70; Plant response rating, Wheat [6, 18]: 0; Plant response rating, Blackgrass [7, 18]: 20; Plant response rating, Galium [8, 18]: 20
